Results published in patent publication US20070293475A1, “ARYL AND HETEROARYL TETRAHYDROBENZAZEPINE DERIVATIVES AND THEIR USE FOR TREATING GLAUCOMA” (ALCON MAN[…]., priority 2006, published 2007).

Tests used:
r5-HT2A = biological target: T1, r5-HT2A (Rattus norvegicus, UniProt P14842); experiment: r5-HT2A functional assay: FLIPR, intracellular calcium mobilization in A7r5 cells; assay type: cell-based; conditions: for EC50: FLIPR, rat A7r5 vascular smooth muscle cells, read-out: r5-HT 2A EC50; for Emax: percentage of maximum 5-HT-induced response, A7r5 cells, read-out: r5-HT 2A (Emax)
T1 construct: endogenous in cells; host or cells: A7r5 rat vascular smooth muscle cells
T1 sequence (P14842 whole entry): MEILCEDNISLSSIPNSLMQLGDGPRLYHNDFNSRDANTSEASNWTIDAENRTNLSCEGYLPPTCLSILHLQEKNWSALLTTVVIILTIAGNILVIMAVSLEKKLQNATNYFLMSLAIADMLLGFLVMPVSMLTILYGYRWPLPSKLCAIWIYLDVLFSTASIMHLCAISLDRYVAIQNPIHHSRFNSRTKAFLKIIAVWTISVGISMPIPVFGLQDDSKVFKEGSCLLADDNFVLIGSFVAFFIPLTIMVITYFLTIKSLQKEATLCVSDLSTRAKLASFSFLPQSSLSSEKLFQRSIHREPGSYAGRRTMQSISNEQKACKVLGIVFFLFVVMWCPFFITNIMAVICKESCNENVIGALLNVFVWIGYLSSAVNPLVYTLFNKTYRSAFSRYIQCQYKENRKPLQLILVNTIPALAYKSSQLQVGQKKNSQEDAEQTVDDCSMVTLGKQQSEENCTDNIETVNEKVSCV
Method: r5-HT2A Functional Assay: FLIPR
Rat Vascular Smooth Muscle Cells
(§1) The receptor-mediated mobilization of intracellular calcium ([Ca^2+]i) was studied using the Fluorescence Imaging Plate Reader (FLIPR) instrument. Rat vascular smooth muscle cells, A7r5, were grown in a normal media of DMEM/10% FBS and 10 μg/ml gentamycin. Confluent cell monolayers were trypsinized, pelleted, and re-suspended in normal media. Cells were seeded in a 50 μL volume at a density of 20,000 cells per well in a black wall, 96-well tissue culture plate and grown for 2 days. On the day of the experiment, one vial of FLIPR Calcium Assay Kit dye was re-suspended in 50 ml of a FLIPR buffer consisting of Hank's Balanced Salt Solution (HBSS), 20 mM HEPES, and 2.5 mM probenecid, pH 7.4. Cells were loaded with the calcium-sensitive dye by addition of an equal volume (50 μl) to each well of the 96-well plate and incubated with dye for 1 h at 23° C. Typically, test compounds were stored at […] in 50% DMSO/50% Ethanol solvent. Compounds were diluted 1:50 in 20% DMSO/20% Ethanol. For dose-response experiments, compounds were diluted 1:50 in FLIPR buffer and serially diluted 1:10 to give a 5- or 8-point dose-response curve.
(§2) At the beginning of an experimental run, a signal test was performed to check the basal fluorescence signal from the dye-loaded cells and the uniformity of the signal across the plate. The basal fluorescence was adjusted between 8000-12000 counts by modifying the exposure time, the camera F-stop, or the laser power. The instrument settings for a typical assay were as follows: laser power 0.3-0.6 W, camera F-stop F/2, and exposure time 0.4 sec. An aliquot (25 μl) of the test compound was added to the existing 100 μl dye-loaded cells at a dispensing speed of 50 μl/sec. Fluorescence data were collected in real-time at 1.0 sec intervals for the first 60 sec and at 6.0 sec intervals for an additional 120 sec. Responses were measured as peak fluorescence intensity minus basal and where appropriate were expressed as a percentage of a maximum 5-HT-induced response.

[1] = biological target: T2, recombinant rat 5-HT2C receptor (Rattus norvegicus, UniProt P08909); experiment: r5-HT2C functional assay: FLIPR, SR3T3 cells; assay type: cell-based; conditions: for EC50: FLIPR, SR3T3 cells expressing recombinant rat 5-HT2C, read-out: r5-HT 2C EC50; for Emax: SR-3T3, percentage of maximum 5-HT-induced response, SR3T3 cells, read-out: r5-HT 2C (Emax)
T2 construct: expressed in transfected cells; host or cells: SR3T3 cells
T2 sequence (P08909 33-460): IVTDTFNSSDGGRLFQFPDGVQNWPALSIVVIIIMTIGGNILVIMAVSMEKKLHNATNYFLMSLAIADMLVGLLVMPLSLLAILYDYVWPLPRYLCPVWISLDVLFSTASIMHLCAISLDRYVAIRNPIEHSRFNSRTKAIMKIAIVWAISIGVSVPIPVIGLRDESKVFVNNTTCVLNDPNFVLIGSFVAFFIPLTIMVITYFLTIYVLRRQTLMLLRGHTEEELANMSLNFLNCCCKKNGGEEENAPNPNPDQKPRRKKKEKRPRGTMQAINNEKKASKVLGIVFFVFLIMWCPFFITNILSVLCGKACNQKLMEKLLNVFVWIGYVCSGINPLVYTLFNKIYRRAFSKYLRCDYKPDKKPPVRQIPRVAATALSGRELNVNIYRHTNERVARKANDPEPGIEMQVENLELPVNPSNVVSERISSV
Method: as §1, §2
r5-HT2C Functional Assay: FLIPR
This assay were performed as for the r5-HT2A receptor above, except that SR3T3 cells expressing the recombinant rat 5-HT2C receptor were utilized.

[2] = biological target: T3, human serotonin receptor clone 5-HT2A (Homo sapiens, UniProt P28223); experiment: h5-HT2 functional assay, CHO-K1 aequorin luminescence (5-HT2A); assay type: cell-based; conditions: for Emax: CHO-K1, relative to the response of α-methyl-5-HT, read-out: h5-HT 2A (Emax); for EC50: CHO-K1 cells, aequorin, Gα16, read-out: h5-HT 2A EC50
T3 construct: expressed in transfected cells; host or cells: CHO-K1 cells stably expressing aequorin and Galpha16
T3 sequence (P28223 whole entry): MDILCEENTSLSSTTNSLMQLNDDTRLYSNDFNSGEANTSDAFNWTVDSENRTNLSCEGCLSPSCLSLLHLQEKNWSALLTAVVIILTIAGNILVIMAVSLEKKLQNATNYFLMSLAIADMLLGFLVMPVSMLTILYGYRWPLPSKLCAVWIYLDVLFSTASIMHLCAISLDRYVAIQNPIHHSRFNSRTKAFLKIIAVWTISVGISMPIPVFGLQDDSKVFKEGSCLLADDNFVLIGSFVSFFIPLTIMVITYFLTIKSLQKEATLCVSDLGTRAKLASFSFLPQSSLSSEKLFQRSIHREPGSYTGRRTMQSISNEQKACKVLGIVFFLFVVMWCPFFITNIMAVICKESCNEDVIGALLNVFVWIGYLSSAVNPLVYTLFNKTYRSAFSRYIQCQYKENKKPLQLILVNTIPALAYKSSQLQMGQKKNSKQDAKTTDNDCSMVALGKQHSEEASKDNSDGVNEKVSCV
Method: (§3) Functional response at the 5-HT2 receptor subtypes was determined using CHO-K1 cells stably expressing mitochondrially-targeted bioluminescent aequorin, Gα16, and one of either human serotonin receptor clone 5-HT2A, 5-HT2B , or 5-HT2C. Prior to testing, cells were loaded in suspension with coelenterazine for 4-16 hours and directly injected onto different concentrations of the test compound. Light emitted from the cells was measured 20-30 seconds following receptor activation. A luminometer (Hamamatsu, FDSS-6000) was used to record luminescence in response to the test compound. The mean response signal at each of 8-11 different concentrations was integrated to provide an estimation of receptor activation, expressed as the EC50 value. The efficacy of the response (Emax) at the 5-HT2A and 5-HT2B receptors is expressed relative to the response of α-methyl-5-HT under the same assay conditions while the efficacy at 5-HT2C is expressed relative to the response of 5-HT.

[3] = biological target: T4, human serotonin receptor clone 5-HT2B (Homo sapiens, UniProt P41595); experiment: h5-HT2 functional assay, CHO-K1 aequorin luminescence (5-HT2B); assay type: cell-based; conditions: for Emax: CHO-K1, relative to the response of α-methyl-5-HT, read-out: h5-HT 2B (Emax); for EC50: CHO-K1 cells, aequorin, Gα16, read-out: h5-HT 2B EC50
T4 construct: expressed in transfected cells; host or cells: CHO-K1 cells stably expressing aequorin and Galpha16
T4 sequence (P41595 whole entry): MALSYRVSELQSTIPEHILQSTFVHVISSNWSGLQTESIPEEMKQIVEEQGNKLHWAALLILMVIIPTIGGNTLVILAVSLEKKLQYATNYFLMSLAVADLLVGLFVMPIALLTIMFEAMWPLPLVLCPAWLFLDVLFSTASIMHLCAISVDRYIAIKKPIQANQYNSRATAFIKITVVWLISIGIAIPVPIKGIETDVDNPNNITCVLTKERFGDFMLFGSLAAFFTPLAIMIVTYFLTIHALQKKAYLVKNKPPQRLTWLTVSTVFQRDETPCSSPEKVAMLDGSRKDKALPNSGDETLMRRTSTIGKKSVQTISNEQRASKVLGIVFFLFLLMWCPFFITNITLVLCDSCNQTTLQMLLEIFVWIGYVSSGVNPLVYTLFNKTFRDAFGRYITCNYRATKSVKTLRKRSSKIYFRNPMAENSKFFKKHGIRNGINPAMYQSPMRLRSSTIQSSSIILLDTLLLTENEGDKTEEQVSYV
Method: as §3

[4] = biological target: T5, human serotonin receptor clone 5-HT2C (Homo sapiens, UniProt P28335); experiment: h5-HT2 functional assay, CHO-K1 aequorin luminescence (5-HT2C); assay type: cell-based; conditions: for Emax: CHO-K1, relative to the response of 5-HT, read-out: h5-HT 2C (Emax); for EC50: CHO-K1 cells, aequorin, Gα16, read-out: h5-HT 2C EC50
T5 construct: expressed in transfected cells; host or cells: CHO-K1 cells stably expressing aequorin and Galpha16
T5 sequence (P28335 33-458): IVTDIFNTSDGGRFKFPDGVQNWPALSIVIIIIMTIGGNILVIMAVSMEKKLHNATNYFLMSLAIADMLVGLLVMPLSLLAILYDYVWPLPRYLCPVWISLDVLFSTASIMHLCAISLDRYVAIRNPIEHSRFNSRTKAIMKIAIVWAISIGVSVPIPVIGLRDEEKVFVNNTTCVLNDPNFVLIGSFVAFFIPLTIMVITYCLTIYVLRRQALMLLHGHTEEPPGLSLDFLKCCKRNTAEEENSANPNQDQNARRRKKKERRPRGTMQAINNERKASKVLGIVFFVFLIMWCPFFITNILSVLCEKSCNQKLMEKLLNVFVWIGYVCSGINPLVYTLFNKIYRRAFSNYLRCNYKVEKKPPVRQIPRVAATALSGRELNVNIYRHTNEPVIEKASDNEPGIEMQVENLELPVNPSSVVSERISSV
Method: as §3

[5] = system: Lasered (Hypertensive) Eyes of Conscious Cynomolgus Monkeys; experiment: Acute IOP response in lasered (hypertensive) eyes of conscious cynomolgus monkeys; assay type: in vivo; conditions: for IOP change (mmHg): value in parentheses
Method: Acute IOP Response in Lasered (Hypertensive) Eyes of Conscious Cynomolgus Monkeys
Intraocular pressure (IOP) can be determined with an Alcon Pneumatonometer after light corneal anesthesia with 0.1% proparacaine. Eyes are washed with saline after each measurement. After a baseline IOP measurement, test compound is instilled in one 30 μL aliquot to the right eyes only of nine cynomolgus monkeys. Vehicle is instilled in the right eyes of six is additional animals. Subsequent IOP measurements are taken at 1, 3, and 6 hours.
The above method was used to determine the IOP lowering efficacy of Compound 1. All eyes were pretreated with 1 drop of 0.5% proparacaine to address discomfort.

[6] = dose 100 μg topical, 1 hr, baseline IOP 38.3 mmHg
[7] = dose 100 μg topical, 3 hr, baseline IOP 38.3 mmHg
[8] = dose 100 μg topical, 6 hr, baseline IOP 38.3 mmHg
[9] = dose 150 μg topical, 1 hr, baseline IOP 40.4 mmHg
[10] = dose 150 μg topical, 3 hr, baseline IOP 40.4 mmHg
[11] = dose 150 μg topical, 6 hr, baseline IOP 40.4 mmHg

| Compound | EC50 (r5-HT2A) [nM] | Emax (r5-HT2A) [%] | EC50 [1] [nM] | Emax [1] [%] | Emax [2] [%] | EC50 [2] [nM] | Emax [3] [%] | EC50 [3] [nM] | Emax [4] [%] | EC50 [4] [nM] | further results |
| --- | --- | --- | --- | --- | --- | --- | --- | --- | --- | --- | --- |
| COc1cccc(Cc2ccc3c(c2)CCNCC3)c1 [Example 1, 7-(3-Methoxy-benzyl)-2,3,4,5-tetrahydro-1H-benzo[d]azepine] | 386 | 39 | 82 | 100 | 102 | 1.5 | 87 | 390 | 105 | 1.1 | % IOP change [5, 6]: −16.5%; IOP change (mmHg) [5, 6]: (6.6) mmHg; % IOP change [5, 7]: −33.1%; IOP change (mmHg) [5, 7]: (13.1) mmHg; % IOP change [5, 8]: −42.5%; IOP change (mmHg) [5, 8]: (16.8) mmHg; % IOP change [5, 9]: −15.6%; IOP change (mmHg) [5, 9]: (6.1) mmHg; % IOP change [5, 10]: −29.5%; IOP change (mmHg) [5, 10]: (12.3) mmHg; % IOP change [5, 11]: −37.8%; IOP change (mmHg) [5, 11]: (15.6) mmHg |
| Oc1cccc(Cc2ccc3c(c2)CCNCC3)c1 [Example 2, 3-(2,3,4,5-Tetrahydro-1H-benzo[d]azepin-7-ylmethyl)-phenol] | > 1000 |  | 120 | 100 | 98 | 31 | 35 | 1240 | 109 | 8.8 |  |
| COc1cc(Cc2ccc3c(c2)CCNCC3)cc(OC)c1 [Example 3, 7-(3,5-Dimethoxy-benzyl)-2,3,4,5-tetrahydro-1H-benzo[d]azepine] | > 10000 |  | 629 | 70 | 104 | 16.9 | 6 | > 10000 | 105 | 20 |  |
| COc1cccc(OCc2ccc3c(c2)CCNCC3)c1 [Example 6, 7-[(3-methoxyphenoxy)methyl]-2,3,4,5-tetrahydro-1H-3-benzazepine] | 69 | 35 | 91 | 89 | 105 | 0.4 | 61 | 417 | 107 | 3.9 |  |
| Oc1cccc(OCc2ccc3c(c2)CCNCC3)c1 [Example 7, 3-(2,3,4,5-tetrahydro-1H-3-benzazepin-7-ylmethoxy)phenol] | 440 | 40 | 65 | 92 |  |  |  |  |  |  |  |
| COc1cccc(COc2cc3c(cc2C)CCNCC3)c1 [Example 8, 7-[(3-methoxybenzyl)oxy]-8-methyl-2,3,4,5-tetrahydro-1H-3-benzazepine] | 1920 | 48 | 250 | 102 | 102 | 2.4 | 63 | 230 | 101 | 4.5 |  |
